According to PubChem BioAssay (NCI):
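Where inhibition never reached the appropriate level, the endpoint shown equals the highest concentration tested. Otherwise, values were interpolated linearly from a five-concentration, 48-hour dose response in 96-well plates. At the TGI there is no net growth.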

Assays:
Test in all cases: NCI tumour cell line growth inhibition, 48 h
[1] = system: COLO 205 colon
[2] = system: EKVX NSCLC
[3] = system: HCT-15 colon
[4] = system: HOP-62 NSCLC
[5] = system: HOP-92 NSCLC
[6] = system: HT29 colon
[7] = system: K-562 leukemia
[8] = system: LOX IMVI melanoma
[9] = system: M14 melanoma
[10] = system: MALME-3M melanoma
[11] = system: MDA-MB-435
[12] = system: NCI-H522 lung
[13] = system: NCI/ADR-RES ovarian
[14] = system: SK-MEL-2 melanoma
[15] = system: SNB-19 CNS
[16] = system: SNB-75 CNS
[17] = system: SR leukemia
[18] = system: SW-620 colon
[19] = system: UO-31 renal

Measured: TGI

N#CCC1C2CC3C(C2=O)C13 (centres undefined)
> 100 µM: all assays above

CCc1ccc(Nc2cc(=O)n(C)c(SCc3ccccc3)n2)cc1
45.2 µM: [1]
60.4 µM: [6]
> 100 µM: all other assays above

CC(=O)O[C@H]1CC[C@@]2(C)C(=CC[C@@H]3[C@@H]2CC[C@](C)(c2nnc(C)o2)[C@H]3CC#N)C1
> 100 µM: all assays above

CCCn1c(=O)c2nn3c(=O)n(CCC)c(=O)c3nn2c1=O
> 100 µM: all assays above

COc1ccccc1N1C(=O)CSC1c1cc(OC)c(OC)c(OC)c1 (centres undefined)
40 µM: [11]
> 20.8 µM: [15]
> 76.8 µM: [12]
> 100 µM: all other assays above

C=C(CCC/C(C)=C/C=C/[C@H](C)CCCc1ccoc1)C[C@@H]1OC(=O)[C@H](C)[C@@H]1O
31.6 µM: [8]
18.8 µM: [4] | [12]
19.4 µM: [9]
18.5 µM: [5] | [11]
15.6 µM: [19]
50 µM: [6]
17.3 µM: [16]
37.8 µM: [17]
21 µM: [2]
17.1 µM: [15]
27.4 µM: [1] | [3]
28.6 µM: [7]
22.5 µM: [13]
19.8 µM: [10]
26.7 µM: [18]
17.8 µM: [14]
